For assay [1], the target named is T1, δ-opioid receptor (Mus musculus, UniProt P32300).
T1 construct: from tissue; host or cells: vas deferens of male ddy mice
The experiment in a line: δ-opioid antagonist activity against DPDPE in mouse vas deferens (MVD). The settings on record: for Ratio of IC50 Values: DPDPE IC50 with/without 100 nM test compound; for Ratio of IC50 Values / Kb: 20 min; for Kb: against DPDPE, test compound 100 nM. As for the experimental part: Using mouse vas deferens (MVD), the antagonist activity against DPDPE which is a δ-opioid agonist was checked.
(§1) In this experiment, ddy male mice were used. In a Magnus' tube which is filled with Krebes-Henseleit solution (NaCl […]; KCl 4.7 mM; CaCl2 2.5 mM; KH2 PO4 1.1 mM; NaHCO3 25 mM; glucose 11 mM) kept at 37° C., and into which an atmosphere consisting of 5% carbon dioxide and 95% oxygen was flown, vas deferens taken from the animals was suspended. Electric stimulation was applied through ring-shaped platinum electrodes mounted on the upper and lower portions of the tube at a frequency of 0.1 Hz and 5.0 mS duration. The contraction of the tissue was recorded on polygraph using isometric transducer.
(§2) Then 100 nM of the test compound was added. Twenty minutes later, DPDPE was begun to be added cumulatively. The ratio of IC50 values in the presence and absence of the test compound, Ke value (the molar concentration of the test compound necessary for translating the dose-effect curve to the curve of twice dose) and pA2 value were determined. The pA2 value was determined by the method of Shild et al (Shild, H. O., Br. J. Pharmac. Chamotehr., 4, 277 (1949)). That is, the logarithm of the test compound (log[test compound]) was plotted along the abscissa and the logarithm of the value obtained by subtracting 1 from the ratio of IC50 values was plotted in the presence and absence of the test compound [log(dose ratio-1)] along the ordinate. The pA2 value was determined from the value on the abscissa when the value on the ordinate of the obtained line is 0.

Assay [2] concerns the target T1, δ-opioid receptor. The experiment in a line: Change in δ-antagonist activity against DPDPE with time in mouse vas deferens (MVD). As to conditions: for Ratio of IC50 Values / Kb: 173 and NTI at 20 nM, 174 and 5'-NTII at 100 nM; for Kb: read-out: Ke; for change of antagonist activity with time (in words): 15 min to 1 hour; for activity at 1 hour relative to 5'-NTII: vs 5'-NTII. As for the experimental part: as §1, §2
Using MVD, the antagonist activities of compounds 173 and 174 against DPDPE were determined. The ratio of IC50 values, Ke values and pA2 values at 15 minutes, 30 minutes and 1 hour from the addition of the test compounds were calculated. Since the concentrations of the test compounds are different, the reciprocals of Ke values were plotted in FIGS. 1 and 2.

The subject of assay [3] is Cerebral cortex nerve cells. The experiment in a line: Brain cell-protecting action, MTT method. The settings on record: 10 μM. Type of assay: cell-based, rat. On the procedure:
The brain cell-protecting action was examined by MTT [3-(4,5-dimethylthiazol-2-yl)-2,5-diphenyltetrazolium bromide] method. MTT yields a dark blue formazan compound by mitochondria in living cells. This compound was dissolved in isopropanol and absorbance at 570 nm was measured, thereby measuring the number of living cells.
Cerebral cortex nerve cells of fetal rats of 17 days old were placed in wells of a 96-well plate at a population density of 1×10^5 cells/cm^2. Then 10 μM of a test compound was added and the cells were cultured in 200 μl of mixed medium of D-MEM/F.12 (1:1) for 3 days (37° C., 5%CO2). In a control group, the medium alone was added Then […] of MTT solution in PBS (6mg/ml) was added and the mixture was allowed to react for 3 hours (37° C., 5% CO2). After removing the culture medium, 100 μl of isopropanol was added and the absorbance was measured.
The ratio of the absorbances of the study group and the control group was employed as an index of brain cell-protecting action.
Background: Formazan colour is commonly taken as a measure of viable cells.

SMILES strings stand for the structures.

T1 sequence (P32300 whole entry): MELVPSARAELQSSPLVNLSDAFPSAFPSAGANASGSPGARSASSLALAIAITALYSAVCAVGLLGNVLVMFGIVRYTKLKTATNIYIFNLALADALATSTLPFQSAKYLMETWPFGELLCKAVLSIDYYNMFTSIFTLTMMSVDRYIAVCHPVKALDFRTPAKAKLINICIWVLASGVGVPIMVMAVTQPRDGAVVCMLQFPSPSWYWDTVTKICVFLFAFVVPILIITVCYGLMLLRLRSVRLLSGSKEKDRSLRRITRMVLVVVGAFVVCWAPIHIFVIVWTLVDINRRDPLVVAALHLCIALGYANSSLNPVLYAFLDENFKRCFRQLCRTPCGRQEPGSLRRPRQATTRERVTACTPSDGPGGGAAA

Take `C=CCN1CC[C@]23c4c5ccc(O)c4O[C@H]2c2[nH]c4cccc(C(=O)OC)c4c2C[C@@]3(O)[C@H]1C5` [Compound 114, 17-allyl-6,7-didehydro-4,5α-epoxy-3,14β-dihydroxy-4'-methoxycarbonyl-6,7-2',3'-indolomorphinan]: at δ-opioid receptor [1], the “Ratio of IC50 Values” was 20.7. At δ-opioid receptor [1] (read-out: Ke), the Kb amounted to 5.08 nM.
Taken in the same sequence, the figures for `COC(=O)c1cccc2[nH]c3c(c12)C[C@@]1(O)[C@H]2Cc4ccc(O)c5c4[C@@]1(CCN2CC1CC1)[C@H]3O5` [Compound 76, 17-cyclopropylmethyl-6,7-didehydro-4,5α-epoxy-3,14β-dihydroxy-4'-methoxycarbonyl-6,7-2',3'-indolomorphinan] were 6.82 and 17.2 nM.
Take `CN(C)S(=O)(=O)c1ccc2c3c([nH]c2c1)[C@@H]1Oc2c(O)ccc4c2[C@@]12CCN(CC1CC1)[C@H](C4)[C@]2(O)C3` [Compound 51, 17-cyclopropylmethyl-6,7-didehydro-4,5α-epoxy-3,14β-dihydroxy-6'-(N,N-dimethylsulfamoyl)-6,7-2',3'-indolomorphinan]: the “Ratio of IC50 Values” at δ-opioid receptor [1] is reported as 33.2. For the same molecule, the values for the Kb on δ-opioid receptor [1] (read-out: Ke) and at δ-opioid receptor [1] (read-out: pA2 (converted)) were 3.11 nM and 2.69 nM, respectively.
Consider `Oc1ccc2c3c1O[C@H]1c4[nH]c5c(N=C=S)cccc5c4C[C@@]4(O)[C@@H](C2)N(CC2CC2)CC[C@]314` [Compound 173, 17-cyclopropylmethyl-6,7-didehydro-4,5α-epoxy-3,14β-dihydroxy-7'-isothiocyanato-6,7-2',3'-indolomorphinan], for which the “Ratio of IC50 Values” on δ-opioid receptor [2] (15 min) is 105; at δ-opioid receptor [2] (30 min), 253; at δ-opioid receptor [2] (60 min) it was 306. Also, the values for the Kb on δ-opioid receptor [2] (15 min), on δ-opioid receptor [2] (30 min) and at δ-opioid receptor [2] (60 min) were 0.19 nM, 0.08 nM and 0.07 nM, respectively. In addition, on δ-opioid receptor [2], the “change of antagonist activity with time (in words)” value is “increased with time”. Also, the “activity at 1 hour relative to 5'-NTII” value at δ-opioid receptor [2] (1 hour) was “about 170 times”. The “activity at 1 hour relative to NTI” value on δ-opioid receptor [2] (1 hour, vs NTI) is recorded as “about 3.5 times”. The “activity relative to compound 174 (in words)” value at δ-opioid receptor [2] (vs compound 174) is “inferior to that of compound 174”.
As to `CS(=O)(=O)c1ccc2[nH]c3c(c2c1)C[C@@]1(O)[C@H]2Cc4ccc(O)c5c4[C@@]1(CCN2CC1CC1)[C@H]3O5` [Compound 6, 17-cyclopropylmethyl-6,7-didehydro-4,5α-epoxy-3,14β-dihydroxy-5'-methylsulfonyl-6,7-2',3'-indolomorphinan], the “Ratio of IC50 Values” at δ-opioid receptor [1] was 12.6. For the same molecule, the Kb on δ-opioid receptor [1] (read-out: Ke) worked out at 8.62 nM.
In the same order, the values of `Oc1ccc2c3c1O[C@H]1c4[nH]c5c(C(F)(F)F)cccc5c4C[C@@]4(O)[C@@H](C2)N(CC2CC2)CC[C@]314` [Compound 118, 17-cyclopropylmethyl-6,7-didehydro-4,5α-epoxy-3,14β-dihydroxy-7'-trifluoromethyl-6,7-2',3'-indolomorphinan] are 52.9 and 1.93 nM.
In the case of `CS(=O)(=O)c1cccc2c3c([nH]c12)[C@@H]1Oc2c(O)ccc4c2[C@@]12CCN(CC1CC1)[C@H](C4)[C@]2(O)C3` [Compound 190, 17-cyclopropylmethyl-6,7-didehydro-4,5α-epoxy-3,14β-dihydroxy-7'-methylsulfonyl-6,7-2',3'-indolomorphinan], on δ-opioid receptor [1], the “δ-antagonist activity relative to NTI (times that of NTI)” value is 1.3-1.6 times and the “Ratio of IC50 Values” came to 698. Also, the Kb on δ-opioid receptor [1] (read-out: Ke) worked out at 0.14 nM.
Consider `O=C(NCC1CC1)c1cccc2[nH]c3c(c12)C[C@@]1(O)[C@H]2Cc4ccc(O)c5c4[C@@]1(CCN2CC1CC1)[C@H]3O5` [Compound 46, 17-cyclopropylmethyl-6,7-didehydro-4,5α-epoxy-3,14β-dihydroxy-4'-(N-cyclopropylmethylcarbamoyl)-6,7-2',3'-indolomorphinan], for which the “Ratio of IC50 Values” at δ-opioid receptor [1] came to 1.39. For the same molecule, the Kb on δ-opioid receptor [1] (read-out: Ke) came to 256 nM.
In the same order, the values of `CCOC(=O)c1ccc2[nH]c3c(c2c1)C[C@@]1(O)[C@H]2Cc4ccc(O)c5c4[C@@]1(CCN2CC1CC1)[C@H]3O5` [Compound 3, 17-cyclopropylmethyl-6,7-didehydro-4,5α-epoxy-3,14β-dihydroxy-5'-ethoxycarbonyl-6,7-2',3'-indolomorphinan] are 5.34 and 23 nM.
Turning to `Oc1ccc2c3c1O[C@H]1c4[nH]c5ccc(CNCC6CC6)cc5c4C[C@@]4(O)[C@@H](C2)N(CC2CC2)CC[C@]314` [Compound 180, 17-cyclopropylmethyl-6,7-didehydro-4,5α-epoxy-3,14β-dihydroxy-5'-(N-cyclopropylmethylamino)methyl-6,7-2',3'-indolomorphinan], on δ-opioid receptor [1], the “Ratio of IC50 Values” is recorded as 15.2. Moreover, the Kb at δ-opioid receptor [1] (read-out: Ke) worked out at 7.04 nM. Moreover, in assay [3] (MTT), the “brain cell-protecting action (in words)” value is “Clear activities”. The “Ratio of Absorbances” value in assay [3] (study group / control group, 570 nm, 3 days culture) came out at 8.73. Besides, in assay [3] (vs nor-BNI), the “brain cell-protecting activity relative to nor-BNI (in words)” value is recorded as “higher than that of nor-BNI”.
On to `CS(=O)(=O)c1ccc2c3c([nH]c2c1)[C@@H]1Oc2c(O)ccc4c2[C@@]12CCN(CC1CC1)[C@H](C4)[C@]2(O)C3` [Compound 188, 17-cyclopropylmethyl-6,7-didehydro-4,5α-epoxy-3,14β-dihydroxy-6'-methylsulfonyl-6,7-2',3'-indolomorphinan], for which, at δ-opioid receptor [1], the “Ratio of IC50 Values” worked out at 56.0. The Kb on δ-opioid receptor [1] (read-out: Ke) was found to be 1.82 nM.
Take `Oc1ccc2c3c1O[C@H]1c4[nH]c5c(ccc6cnccc65)c4C[C@@]4(O)[C@@H](C2)N(CC2CC2)CC[C@]314` [Compound 156, 17-cyclopropylmethyl-3,14β-dihydroxy-4,5α-epoxy-6,7-didehydromorphinano[6,7-b]pyrido[4,3-g]indole]: at δ-opioid receptor [1], the “Ratio of IC50 Values” was 26.6. Moreover, the Kb on δ-opioid receptor [1] (read-out: Ke) came to 3.91 nM.
As to `Oc1ccc2c3c1O[C@H]1c4[nH]c5cc(N=C=S)ccc5c4C[C@@]4(O)[C@@H](C2)N(CC2CC2)CC[C@]314` [Compound 174, 17-cyclopropylmethyl-6,7-didehydro-4,5α-epoxy-3,14β-dihydroxy-6'-isothiocyanato-6,7-2',3'-indolomorphinan], the “Ratio of IC50 Values” at δ-opioid receptor [2] (15 min) came out at 25.7; on δ-opioid receptor [2] (30 min), 47.6; at δ-opioid receptor [2] (60 min) it was 58.6. For the same molecule, the Kb at δ-opioid receptor [2] (15 min) was 4.05 nM; at δ-opioid receptor [2] (30 min) it was 2.15 nM; on δ-opioid receptor [2] (60 min) it was 1.74 nM. Further, the “change of antagonist activity with time (in words)” value at δ-opioid receptor [2] is listed as “increased with time”. Also, the “activity at 1 hour relative to 5'-NTII” value at δ-opioid receptor [2] (1 hour) was “about 7 times”.
In the case of `O=[N+]([O-])c1ccc2c3c([nH]c2c1)[C@@H]1Oc2c(O)ccc4c2[C@@]12CCN(CC1CC1)[C@H](C4)[C@]2(O)C3` [Compound 79, 17-cyclopropylmethyl-6,7-didehydro-4,5α-epoxy-3,14β-dihydroxy-6'-nitro-6,7-2',3'-indolomorphinan], on δ-opioid receptor [1], the “Ratio of IC50 Values” was determined as 60.6. The Kb at δ-opioid receptor [1] (read-out: Ke) was 1.68 nM.

(Values after patent publication US6291470A, “Indole derivatives process for producing the same and medicinal uses of the same” (Toray Industries, Inc., priority 1992, dated 2001).)
